In US20240182407A1, “QUINOLINE COMPOUND SALT OR CRYSTAL FORM, PREPARATION METHOD THEREFOR, AND APPLICATION THEREOF” (Nanjing Zenshine Pharmaceuticals Co., Ltd., priority 2021, published 2024):
In brackets after ≈: the same amount, converted by molar mass. Several values for one entry are separate records, joined by “and”; a condition that tells them apart may be missing. Equal entries are not always repeated. Blank lines part the entries; values can stand above or below the compound they belong to.

Legend:
[1] = Solubility in simulated gastrointestinal fluids (SGF, FeSSIF, FaSSIF) at 37° C.; assay type: physicochemical; details: for Solubility: 37° C.
Protocol: The solubilities of Compound A and p-toluenesulfonate (Sample 5, crystal form I) in simulated gastrointestinal fluids (SGF, FeSSIF and FaSSIF) at 37° C. were tested.
About 7.5 mg of Compound A and p-toluenesulfonate were separately added to 1.5 mL of three biological vehicles to prepare suspensions. All the suspensions were placed in a shaker at 37° C. and shaken at 200 rpm for 24 h, and about 0.5 mL was sampled separately at 0.5 h, 2 h and 24 h for filtration. The obtained filtrates were subjected to HPLC analysis and pH measurement, and the filter cakes were respectively measured by XRPD.

[2] = Solid stability, 40° C./75% RH and 60° C., one week (HPLC purity, XRPD); assay type: physicochemical; details: solid
Protocol: Appropriate amounts of Compound A and p-toluenesulfonate of Compound A (Sample 5, crystal form I) were respectively placed in 40° C./75% RH and 60° C. environments for one week to determine solid stability. At days 0 and 7, HPLC purity analysis and solid XRPD determination were carried out, and some of the results were as shown in Table 7.

[3] = system: human-derived lymphoma DoHH-2 cell line; experiment: Human-derived lymphoma DoHH-2 subcutaneous xenograft in CB17/SCID female immunodeficient mice; assay type: in vivo, mouse; details: 50 mg/kg p.o. BID, Day 24
Protocol: In Example 8, the anti-tumor effects of p-toluenesulfonate of Compound A at various dosages by intragastric administration on human-derived lymphoma DoHH-2 cell line subcutaneous transplantation CB17/SCID female immunodeficient mouse model were evaluated.
7-9-week-old CB17/SCID female immunodeficient mice were subcutaneously inoculated with […] DoHH-2 cells to establish a subcutaneous human lymphoma xenograft tumor model. When the average tumor volume in the mice reached 68 mm^3, the mice were randomly divided into groups and dosed on the day of grouping. The treatment method for each treatment group and vehicle control group was as follows:
p-toluenesulfonate of Compound A (Sample 6), given 100 mg/kg (p.o. QD) group, once daily, for 25 days (days 0-24);
p-toluenesulfonate of Compound A (Sample 6), given 30 mg/kg (p.o. QD) group, once daily, for 25 days (days 0-24);
positive treatment group (Duvelisib, purchased from Shanghai Lollane biological technology Co., Ltd.), given 50 mg/kg (p.o. BID) twice daily with an interval of 12 h, for 24 days; and
vehicle control group (5% DMSO/40% PEG400/55% water, by volume) (p.o. QD), given once daily, for 25 days (days 0-24).
There were 10 mice in each group, and all the mice were administered starting on the day of grouping (Day 0) and euthanized on Day 24 after grouping (Day 24). The efficacy was evaluated according to the tumor volume at the end point of the experiment.
The abbreviation p.o. stood for oral gavage, QD stood for once daily, and BID stood for twice daily.
The relative tumor inhibition rate (TGI) was calculated by the following formula: […]
T and C were respectively the average tumor volumes in the experimental group and the vehicle control group at a specific time point.

pH of filtrate ([1]; FaSSIF (pH 6.52), 0.5 h): 6.55
pH of filtrate ([1]; FaSSIF (pH 6.52), 2 h): 6.51
pH of filtrate ([1]; FaSSIF (pH 6.52), 24 h): 6.34
solubility at 30 min ([1]; FaSSIF, 37 °C, pH 6.52, fassif, thermodynamic from solid, FaSSIF (pH 6.52), 30 min): 370 µg/mL (≈ 924 µM)
solubility at 2 h ([1]; FaSSIF, 37 °C, pH 6.52, fassif, thermodynamic from solid, FaSSIF (pH 6.52), 2 h): 320 µg/mL (≈ 799 µM)
solubility at 24 h ([1]; FaSSIF, 37 °C, pH 6.52, fassif, thermodynamic from solid, FaSSIF (pH 6.52), 24 h): 350 µg/mL (≈ 874 µM)
Solubility ([1]; FeSSIF (pH 4.99), 30 min): 2060 µg/mL (≈ 5140 µM)
Solubility ([1]; FeSSIF (pH 4.99), 2 h): 1890 µg/mL (≈ 4720 µM)
Solubility ([1]; FeSSIF (pH 4.99), 24 h): 2200 µg/mL (≈ 5490 µM)
pH of filtrate ([1]; FeSSIF (pH 4.99), 0.5 h): 5.00
pH of filtrate ([1]; FeSSIF (pH 4.99), 2 h): 4.94
pH of filtrate ([1]; FeSSIF (pH 4.99), 24 h): 4.86
Solubility ([1]; SGF (pH 1.21), 30 min): >4920 µg/mL
Solubility ([1]; SGF (pH 1.21), 2 h): >4910 µg/mL
Solubility ([1]; SGF (pH 1.21), 24 h): >4830 µg/mL
pH of filtrate ([1]; SGF (pH 1.21), 0.5 h): 1.19
pH of filtrate ([1]; SGF (pH 1.21), 2 h): 1.16
pH of filtrate ([1]; SGF (pH 1.21), 24 h): 1.18
Purity (peak area %) Average - 40° C./75% RH - 7 d ([2]; 40° C./75% RH, 7 d, average): 98.49 peak area %
Purity (peak area %) 40° C./75% RH - 7 d ([2]; 40° C./75% RH, 7 d, single determinations): 98.52 peak area % and 98.45 peak area %
Purity (peak area %) Average - 60° C. - 7 d ([2]; 60° C., 7 d, average): 98.43 peak area %
Purity (peak area %) 60° C. - 7 d ([2]; 60° C., 7 d, single determinations): 98.37 peak area % and 98.50 peak area %
decrease of chemical purity ([2]; 60° C., 7 days): about 0.16%
Purity (peak area %) Average - 0 d ([2]; day 0, average): 98.59 peak area %
Purity (peak area %) 0 d ([2]; day 0, single determinations): 98.63 peak area % and 98.55 peak area %
Compound: C[C@H](Nc1nc(N)nc(N)c1C#N)c1cc2ccc(F)cc2nc1-c1ccccn1 [Compound A]

Compound: C[C@H](Nc1ncnc2nc[nH]c12)c1cc2cccc(Cl)c2c(=O)n1-c1ccccc1 [Duvelisib, reference compound]
average tumor volume [3]: 1496.12 mm^3
relative tumor inhibition rate (TGI) [3]: 30%
